Laboratory results as given in patent publication US6770638B2, “Tetrahydroindolone and purine derivatives linked to arylpiperazines” (Spectrum Pharmaceuticals, Inc., priority 2001, dated 2004).

Assays:
Caco-2 cells = test: Membrane permeability (Papp) across Caco-2 cell monolayers; type: in vitro ADME; details: Caco-2; for EFFLUX LIMITED: Yes/No; for PERMEABILITY: class in words (High/Low)
[1] = as above; type: in vitro ADME; details: human, Caco-2 monolayer; for Papp A→B: apical to basolateral, read-out: Papp (cm/s × 10^6) AP-to-BL; for Papp B→A: basolateral to apical, read-out: Papp (cm/s × 10^6) BL-to-AP; for efflux ratio: read-out: RATIO Papp^B-A/Papp^A-B
mice = test: Conditioned avoidance responding (CAR, active avoidance); type: in vivo; details: SC to mice, 20 minutes before test session
Protocol: Training: Consists of 20 trials with variable inter-trial intervals (Trained to 80% Avoidance Criteria). After a one-minute acclimation period, the house light and an acoustic 90 dB tone (conditioned stimuli) are presented. A response (crossing to dark compartment) within 5 seconds ends the trial and trial is recorded as avoidance response (CAR). […] To avoid shock, animals learn to move from the lighted side of the -chamber to the dark side when the cue is presented (avoidance) or moved when the shock is administered (escape). Testing: Vehicle or test compounds are administered S.C. 20 minutes before the test session. (Checking for disruption of cognition and attention)

male C-57 mice = test: PCP disruption of pre-pulse inhibition of the acoustic startle response; type: in vivo; details: route not given (method: PO or SC); PCP 5 mg/kg IP
Protocol: The non-competitive NMDA receptor antagonist phencyclidine (PCP) reduces pre-pulse inhibition (PPI) of the acoustic startle response in rodents. Identifying compounds that improve the PCP-induced deficits in pre-pulse inhibition may provide insight into therapeutic strategies for treating schizophrenia. For testing of PPI, male C-57 mice were assigned to five dose groups of eight animals per group, and vehicle or test compound were administered orally (PO) or subcutaneously (SC) 20 minutes prior to intraperitoneal (IP) administration of vehicle or PCP (5 mg/kg). Ten minutes following PCP administration, the mice were placed into Hamilton-Kinder startle chambers and evaluation of pre-pulse inhibition procedure was performed. Following a five-minute acclimatization period with background white noise (65 db), mice were exposed to five different trial types. Trials were presented […] in a quasi-random order, with randomized 5 to 25 second inter-trial intervals. Trials were: stimulus only trial (120 db white noise, 50 ms stimulus); two different prepulse+pulse trials in which a 20 ms 5 db, or 10 db stimuli above a 65 db background preceded the 120 db pulse by 120 ms; a 10 db prepulse without a 120 db pulse; and a no stimulus trial, in which only the background noise was presented.

Row | Compound | EFFLUX LIMITED (Caco-2 cells) | PERMEABILITY (Caco-2 cells) | Papp A→B [1] [×10⁻⁶ cm/s] | Papp B→A [1] [×10⁻⁶ cm/s] | efflux ratio [1] | Conditioned Avoidance Responding, effect on avoidance (mice) | Conditioned Avoidance Responding, effect on latency (mice) | PCP Disruption of Pre-pulse Inhibition, result in words (male C-57 mice) | Conditioned Avoidance Responding, overall effect / effect on escape or avoidance (mice)
1 | COc1ccccc1N1CCN(CCCn2ccc3c2CCCC3=O)CC1 [NEO-370, 1-{3-[4-(2-Methoxyphenyl)piperazine-1-yl]propyl}-1,5,6,7-tetrahydroindol-4-one] | No | High | 32.1 ± 8.1 | 20 ± 3.4 | 0.67 | Significant reduction in avoidance | Significant increase in latency | – | –
2 | O=C1CCCc2c1ccn2CCN1CCN(c2cccc(C(F)(F)F)c2)CC1 [NEO-359, 1-{2-[4-(3-Trifluoromethylphenyl)piperazine-1-yl]ethyl}-1,5,6,7-tetrahydroindol-4-one] | No | High | 24 ± 3.9 | 7.6 ± 0.5 | 0.32 | – | Significant decrease in latency | No reversal | No effect on escape or avoidance
3 | O=C1CCCc2c1ccn2CCN1CCN(c2cccc(Cl)c2)CC1 [NEO-376, 1-{2-[4-(3-Chloro-phenyl)-piperazin-1-yl]-ethyl}-1,5,6,7-tetrahydroindol-4-one] | No | High | 20.4 ± 1.8 | 9.4 ± 0.3 | 0.43 | – | significant increase in latency | – | No effect on escape or avoidance
4 | O=C1CCCc2c1ccn2CCCN1CCN(c2ncccn2)CC1 [NEO-381, 1-{3-[4-(2-Pyrimidyl)piperazine-1-yl]propyl}-1,5,6,7-tetrahydroindol-4-one] | No | High | 32.9 ± 9.6 | 25.3 ± 0.7 | 0.77 | – | – | No reversal | No effect
5 | CC(C)NCC(O)COc1cccc2ccccc12 (stereo not shown) [Propranolol, reference compound] | No | High | 17.3 ± 2.3 | – | – | – | – | – | –
6 | COc1ccccc1N1CCN(CCn2ccc3c2CCCC3=O)CC1 [NEO-377, 1-{2-[4-(2-Methoxyphenyl)-piperazin-1-yl]-ethyl}-1,5,6,7-tetrahydroindol-4-one] | No | High | 26 ± 1.8 | 15.5 ± 2.9 | 0.6 | Significant reduction in avoidance | Significant increase in latency | – | –
7 | O=C1CCCc2c1ccn2CCCCN1CCN(c2cccc(C(F)(F)F)c2)CC1 [NEO-392, 1-{4-[4-(3-Trifluoromethylphenyl)piperazin-1-yl]-butyl}-1,5,6,7-tetrahydroindol-4-one] | No | High | 27.1 ± 1.2 | 15.7 ± 1.3 | 0.58 | Significant reduction in avoidance | Significant increase in latency | – | –
8 | Cc1nc2n(c(=O)c1CCN1CCC(c3noc4cc(F)ccc34)CC1)CCCC2 [Risperidone, risperidone, reference compound] | No | High | 21.5 ± 0.2 | 14 ± 3.1 | – | Significant reduction in avoidance | Significant increase in latency | – | –
9 | CN1CCN(C2=Nc3cc(Cl)ccc3Nc3ccccc32)CC1 [Clozapine, clozapine, reference compound] | No | High | 15.3 ± 0.7 | 7.4 ± 1.1 | 0.65 | – | – | – | –
10 | O=C1CCCc2c1ccn2CCCN1CCN(c2cccc(C(F)(F)F)c2)CC1 [NEO-356, 1-{3-[4-(3-Trifluoromethylphenyl)piperazin-1-yl]propyl}-1,5,6,7-tetrahydroindol-4-one] | No | High | 21.5 ± 2.9 | 8.8 ± 0.3 | 0.41 | – | – | No reversal | No effect
11 | O=C1CCCc2c1ccn2CCCN1CCN(c2cccc(Cl)c2)CC1 [NEO-363, 1-{3-[4-(3-Chlorophenyl)piperazine-1-yl]propyl}-1,5,6,7-tetrahydroindol-4-one] | No | High | 18 ± 0.7 | 13.1 ± 1.1 | 0.75 | – | – | – | No effect
